According to patent US11420934B2, “PPAR agonists” (Salk Institute for Biological Studies, priority 2013, dated 2022):
Like-named read-outs stand apart in the source and are kept apart here.

How the values were obtained:
[1] = target: T1, PPARδ (Homo sapiens, UniProt Q03181); test: Nuclear Hormone Receptor (NHR) protein interaction assay (PathHunter), agonist format; type: cell-based
T1 construct: expressed in transfected cells; host or cells: PathHunter NHR cell lines
T1 sequence (Q03181 1-441): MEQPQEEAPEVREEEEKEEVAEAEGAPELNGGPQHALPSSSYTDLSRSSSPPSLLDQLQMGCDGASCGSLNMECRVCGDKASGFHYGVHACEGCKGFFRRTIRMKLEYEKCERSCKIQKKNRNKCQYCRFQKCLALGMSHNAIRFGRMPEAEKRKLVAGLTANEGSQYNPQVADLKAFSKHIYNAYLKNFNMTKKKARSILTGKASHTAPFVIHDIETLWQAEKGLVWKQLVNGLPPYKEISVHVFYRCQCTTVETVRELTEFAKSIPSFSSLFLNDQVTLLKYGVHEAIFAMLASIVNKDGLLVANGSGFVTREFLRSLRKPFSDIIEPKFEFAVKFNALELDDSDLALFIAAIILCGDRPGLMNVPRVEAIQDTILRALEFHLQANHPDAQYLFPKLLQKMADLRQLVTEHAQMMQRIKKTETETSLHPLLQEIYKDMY
Procedure: PathHunter NHR cell lines were expanded from freezer stocks according to standard procedures. Cells were seeded in a total volume of 20 μL into white walled, 384-well microplates and incubated at 37° C. for the appropriate time prior to testing. Assay media contained charcoal-dextran filtered serum to reduce the level of hormones present.
For agonist determination, cells were incubated with sample to induce response. Intermediate dilution of sample stocks was performed to generate 5× sample in assay buffer. 5 μL of 5× sample was added to cells and incubated at 37° C. or room temperature for 3-16 hours. Final assay vehicle concentration was 1%.
Microplates were read following signal generation with a PerkinElmer Envision™ instrument for chemiluminescent signal detection.
Compound activity was analyzed using CBIS data analysis suite (ChemInnovation, CA). For agonist mode assays, percentage activity was calculated using the following formula: % Activity=100%×(mean RLU of test sample−mean RLU of vehicle control)/(mean MAX control ligand−mean RLU of vehicle control).

[2] = test system: FGF1a promoter; test: Luciferase reporter assay of FGF1a promoter co-transfected with PPARδ; type: cell-based; conditions: with ligand
[3] = Pharmacokinetics in Wistar rats; type: in vivo; conditions: male Wistar rats
Procedure: (§1) In this example, the PK profile of several PPARδ agonists disclosed herein in male CD-1 mice or Wistar rats was determined. Similar methods can be used to analyze other compounds provided herein.
(§2) (quantity sufficient i.e. made up to a final volume of 100% with water). All compounds were separately administered to CD-1 mice at 3 mg/kg iv or 10 mg/kg po.
(§3) The concentration of the compound in plasma was determined, as illustrated in FIGS. 9A-9E.

[4] = test system: thermal injury to the TA; test: Muscle regeneration after thermal (freeze burn) injury to the TA, oral GW501516; type: in vivo, C57BL6J mice
Procedure: A stainless steel […] (Mettler-Toledo) equilibrated to the temperature of dry ice was placed directly on the exposed TA for 10 seconds. Following the thermal injury, incision was closed using VetBond (3M). All injury procedures were performed on the left leg, and the right leg was used as control.
Sterile 1% w/v Evans Blue dye in PBS was intraperitoneally injected at 1% volume relative to the body mass of an animal. 7 hours after the injection, injured TA muscles were harvested and snap-frozen by isopentane quenching in liquid nitrogen. Frozen sections were cut in 10 μm thickness, fixed in ice-cold acetone, dipped in xylene and mounted with DPX. Proportion of the stained area over the total area was measured using ImageJ software.
50 mg/kg body weight of BrdU (Sigma) was injected intraperitoneally as solution of 10 mg/mL BrdU in saline. TA muscles were harvested at 7 days after injury and processed for paraffin sections as described above. BrdU incorporation was visualized using the BrdU Labeling and Detection Kit I (Roche) and BrdU+ nuclei were counted and represented as a proportion of total nuclei in a field.
Whole or partial tissues were homogenized by Polytron probe homogenizer in Trizol reagent (Invitrogen). Total RNA was extracted from the homogenates according to the manufacturer's protocol. 1 μg of DNase-treated total RNA was reverse transcribed using Superscript II Reverse Transcriptase (Invitrogen) according to the manufacturer's instructions. cDNAs were diluted 1/40 with ddH2O and used as templates in RT-QPCR reactions with SYBRGreenER qPCR SuperMix detection system (Invitrogen). Samples were prepared in technical triplicates and relative mRNA levels were calculated by using the standard curve methodology and normalized against GAPDH mRNA levels in the same samples.

[5] = Pharmacokinetics in CD-1 mice; type: in vivo
Procedure: as §1, §2, §3

[6] = type: in vitro ADME
[7] = test system: AKO mice; test: GW treatment in mouse model of ALD (AKO mice); type: in vivo
From the text: ALD is a rare genetic disorder caused by defects in peroxisomal oxidation of very long-chain fatty acids (VLCFAs), resulting in systemic accumulation of VLCFAs, which causes tissue defects mainly in the central nervous system and the adrenal glands. The majority of VLCFAs in the body are endogenously synthesized from long-chain fatty acids (LCFAs). Therefore, one potential way to prevent VLCFA accumulation in ALD is by inducing mitochondrial LCFA oxidation to reduce the availability of LCFAs for VLCFA biosynthesis. In order to test this, a previously described mouse model of ALD was used, in which the X-linked adrenoleukodystrophy gene abcd1 was systemically ablated and the knockout (AKO) mice faithfully recapitulated the abnormal VLCFA accumulation phenotype seen in ALD patients.
3-month-old AKO mice were treated with or without GW and their tissues collected for free FA analysis using GC/MS.

[8] = Tables 7-16, read-out: NHR protein interaction assay, EC50 (nM) for PPARδ

Structure (SMILES)	EC50 [1, 8]	EC50 [1]	other results
CC(C)N(Cc1ccccc1OCCCCCC(=O)O)C(=O)c1ccc(Cl)cc1 [Compd 125]	291 nM		
CC(C)N(Cc1ccccc1OCCCCCC(=O)O)C(=O)c1ccc(N(C)C)cc1 [Compd 128]	5390 nM		
Cc1ccc(C(=O)N(Cc2ccccc2OCCCCCC(=O)O)C(C)C)cc1 [Compd 131]	1610 nM		
CC(C)N(Cc1ccccc1OCCCCCC(=O)O)C(=O)c1ccc(C#CC2CC2)cc1 [Compd 245]	10.5 nM		
Cc1cc(SCc2sc(-c3ccc(C(F)(F)F)cc3)nc2C)ccc1OCC(=O)O [GW501516]			induction of FGF1a (luciferase reporter) [2]: induction of FGF1a; Kel ([3]; 3 mg/Kg i.v.): 0.09 h⁻¹; F ([3]; 10 mg/Kg p.o.): ~100%; Evans Blue dye uptake, proportion of muscle cross sectional area (CSA) stained ([4]; 5 mg/kg orally, 4 days prior to and 5 days after injury, 5 days after the injury, vehicle 7.6%): 4.9%; expression of inflammatory marker genes by QPCR ([4]; 3 days after the injury): significantly reduced; reduction in the proportion of stained area ([4]; 5 days after the injury, versus vehicle): 34.7%; PPARδ target genes (PDK4, CPT1b, catalase) expression in TA by QPCR ([4]; 9 day treatment): Up-regulation; number of quiescent satellite cells ([4]; after 9 days or 4 weeks of ligand treatment): an increase in the number of quiescent satellite cells was not observed; Kel ([5]; 3 mg/Kg i.v.): 0.11 h⁻¹; F ([5]; 10 mg/Kg p.o.): 82.1%; % Parent remained at 15 min, MLM [6]: 93/76%; % Parent remained at 60 min, MLM [6]: 93/76%
Cc1cc(SCc2sc(-c3ccc(C(F)(F)F)cc3)nc2C)ccc1OCC(=O)O [GW]			liver C26:0 ([7]; 8 weeks of GW treatment): cleared in most GW-treated animals; levels of VLCFAs (C22:0, C23:0, C24:0, C26:0) in AKO brain and liver ([7]; 8 weeks of GW treatment, GC/MS): significantly reduced; expression of mitochondrial FA oxidation genes (Cpt1a, 1b, Slc25a20, Acadl) in AKO liver and skeletal muscle ([7]; GW treatment): dramatically induced; saturated LCFAs C12:0 to C22:0 and total FAs in liver and muscle ([7]; GW treatment): significantly reduced
COc1ccc(C(=O)N(Cc2ccccc2OCCCCCC(=O)O)C(C)C)cc1 [compound 126]	1300 nM		
CC(C)N(Cc1ccccc1OCCCCCC(=O)O)C(=O)c1ccc(OC(F)(F)F)cc1 [compound 127]	44.6 nM		
CC(=O)c1ccc(C(=O)N(Cc2ccccc2OCCCCCC(=O)O)C(C)C)cc1 [compound 129]	5070 nM		
CC(C)N(Cc1ccccc1OCCCCCC(=O)O)C(=O)c1ccc(S(C)(=O)=O)cc1 [compound 130]		> 10000 nM	
CC(C)N(Cc1ccccc1OCCCCCC(=O)O)C(=O)c1ccc(F)cc1 [compound 132]	2180 nM		
CC(C)N(Cc1ccccc1OCCCCCC(=O)O)C(=O)c1ccc(OC2CC2)cc1 [compound 134]		> 10000 nM	
CC(C)N(Cc1ccccc1OCCCCCC(=O)O)C(=O)c1ccc(N2CCCC2)cc1 [compound 136]	352 nM		
CC(C)N(Cc1ccccc1OCCCCCC(=O)O)C(=O)c1ccc(C#N)cc1 [compound 151]	894 nM		
CC(C)N(Cc1cc(Br)ccc1OCCCCCC(=O)O)C(=O)c1ccc(-c2ccco2)cc1 [compound 202]	7.3 nM		

More lines, main results first:

EC50 [1, 8]	EC50 [1]	Structure (SMILES)	other results
	> 10000 nM	CC(C)N(Cc1ccccc1OCCCCCC(=O)O)S(=O)(=O)c1ccc(-c2ccco2)cc1 [compound 152]	
	206 nM	CC(C)N(Cc1ccccc1OCCCCCC(=O)O)C(=O)c1ccc(-c2ccco2)cn1 [compound 153]	
	26.1 nM	CC(C)N(Cc1ccccc1OCCCCCC(=O)O)C(=O)c1ccc(-c2ccco2)nc1 [compound 155]	
	143 nM	CC(C)N(Cc1ccccc1OCCCCCC(=O)O)C(=O)c1cnc(-c2ccco2)s1 [compound 156]	
	> 10000 nM	CC(C)N(Cc1ccc(-c2ccco2)cc1)C(=O)c1ccccc1OCCCCCC(=O)O [compound 157]	
	> 10000 nM	CC(C)N(C(=O)Cc1ccccc1OCCCCCC(=O)O)c1ccc(-c2ccco2)cc1 [compound 158]	
	12.1 nM	O=C(O)CCCCCOc1ccccc1CN(CC(F)(F)F)C(=O)c1ccc(-c2ccco2)cc1 [compound 177]	
	79.4 nM	COCCN(Cc1ccccc1OCCCCCC(=O)O)C(=O)c1ccc(-c2ccco2)cc1 [compound 178]	
	485 nM	O=C(O)CCCCCOc1ccccc1CNC(=O)c1ccc(-c2ccco2)cc1 [compound 179]	
7.1 nM		Cc1ccc(OCCCCCC(=O)O)c(CN(C(=O)c2ccc(-c3ccco3)cc2)C(C)C)c1 [compound 203]	
24.6 nM		CC(C)N(Cc1cc(F)ccc1OCCCCCC(=O)O)C(=O)c1ccc(-c2ccco2)cc1 [compound 204]	
	224 nM	CC(C)N(Cc1cc(C#N)ccc1OCCCCCC(=O)O)C(=O)c1ccc(-c2ccco2)cc1 [compound 205]	
5.1 nM		COc1ccc(OCCCCCC(=O)O)c(CN(C(=O)c2ccc(-c3ccco3)cc2)C(C)C)c1 [compound 206]	
	19.4 nM	CC(C)N(Cc1cccnc1OCCCCCC(=O)O)C(=O)c1ccc(-c2ccco2)cc1 [compound 207]	
	338 nM	CC(C)N(Cc1ccccc1OCCCCc1nn[nH]n1)C(=O)c1ccc(-c2ccco2)cc1 [compound 219]	
512 nM		CC(C)N(Cc1ccccc1OCCCCCCC(=O)O)C(=O)c1ccc(-c2ccco2)cc1 [compound 220]	
	1300 nM	CC(C)N(Cc1ccccc1OCCCOCC(=O)O)C(=O)c1ccc(-c2ccco2)cc1 [compound 221]	
18.8 nM		O=C(O)CCCCCOc1ccccc1CN(Cc1ccccc1)C(=O)c1ccc(-c2ccco2)cc1 [compound 247]	
21.1 nM		CN(Cc1ccccc1OCCCCCC(=O)O)C(=O)c1ccc(C#CC2CC2)cc1 [compound 248]	
